{
  "source": "patent US9890142B2",
  "about": "“PDE4 inhibitor” (Meiji Seika Pharma Co., Ltd., priority 2013, dated 2018)",
  "data": [
    {"tested_on": "PDE4", "test": "Evaluation of PDE4 inhibition (scintillation proximity assay)", "format": "biochemical", "conditions": "inhibition rate relative to control, test compound at 1 μM", "protocol": "Test Example 1 Evaluation of PDE4 Inhibition\nThe PDE4 inhibitory activity was measured by using scintillation proximity assay (SPA) as follows: one in which a sample compound dissolved in dimethyl sulfoxide was diluted 10-fold with a buffer solution for reaction containing 50 mM Tris-HCl, pH 7.5, 8.3 mM MgCl2, 1.7 mM EDTA and 0.3 mg/mL bovine serum albumin (BSA) was added at 10 μL/well to a 96-well assay plate. Further, PDE4 diluted 750-fold with a buffer solution for reaction was added at 50 μL/well, then [2,8-^3H]-Adenosine-3′,5′-cyclic phosphate triethylammonium salt diluted 1000-fold with a buffer solution for reaction was added at 40 μL/well, and the plate was left standing at room temperature for 120 minutes. Thereafter, a suspension of RNA binding YSi-SPA Beads containing 200 mM ZnSO4 was added at 50 μL/well, and the plate was left standing at room temperature for 15 minutes to adsorb the enzyme reaction product onto the Beads. Thereafter, the radioactivity was measured with a liquid scintillation counter for 96-well plates. When one supplemented with only a buffer solution for reaction without adding the enzyme preparation was used as a blank and one supplemented with the enzyme preparation but supplemented with only dimethyl sulfoxide instead of the sample solution was used as a control, the inhibition rate of the test compound relative to the control was calculated according to the following calculation expression: Inhibition rate (%)={1−(Numeric value from the addition of each sample−Blank value)/(Control value−Blank value)}×100", "units": {"PDE4 inhibitory activity (1 μM (%))": "%"}, "values": [
      {"smiles": "C[C@H]1CNCCN1c1nc2cc(Cl)cc(-c3cccnc3)c2o1", "note": "[Example 42, (S)-5-Chloro-2-(2-methylpiperazin-1-yl)-7-(pyridin-3-yl)benzoxazole]", "PDE4 inhibitory activity (1 μM (%))": 66},
      {"smiles": "C[C@H]1CNCCN1c1nc2cc(Cl)cc(-c3ccncc3)c2o1", "note": "[Example 43, (S)-5-Chloro-2-(2-methylpiperazin-1-yl)-7-(pyridin-4-yl)benzoxazole]", "PDE4 inhibitory activity (1 μM (%))": 61},
      {"smiles": "C[C@H]1CNCCN1c1nc2cc(Cl)cc(C3CCCCC3)c2o1", "note": "[Example 44, (S)-5-Chloro-7-cyclohexyl-2-(2-methylpiperazin-1-yl)benzoxazole]", "PDE4 inhibitory activity (1 μM (%))": 64},
      {"smiles": "C[C@H]1CNCCN1c1nc2cc(Cl)cc(-n3nccn3)c2o1", "note": "[Example 45, (S)-5-Chloro-2-(2-methylpiperazin-1-yl)-7-(2H-1,2,3-triazol-2-yl)benzoxazole]", "PDE4 inhibitory activity (1 μM (%))": 87},
      {"smiles": "C[C@H]1CNCCN1c1nc2cc(Cl)cc(-n3cncn3)c2o1", "note": "[Example 46, (S)-5-Chloro-2-(2-methylpiperazin-1-yl)-7-(1H-1,2,4-triazol-1-yl)benzoxazole]", "PDE4 inhibitory activity (1 μM (%))": 29},
      {"smiles": "CC(C)Cc1cc(Cl)cc2nc(N3CCNC[C@@H]3C)oc12", "note": "[Example 47, (S)-5-Chloro-7-isobutyl-2-(2-methylpiperazin-1-yl)benzoxazole]", "PDE4 inhibitory activity (1 μM (%))": 35},
      {"smiles": "C[C@H]1CNCCN1c1nc2cc(Cl)cc(-c3ccccc3CO)c2o1", "note": "[Example 48, (S)-5-Chloro-2-(2-methylpiperazin-1-yl)-7-(2-hydroxymethylphenyl)benzoxazole]", "PDE4 inhibitory activity (1 μM (%))": 53},
      {"smiles": "C[C@H]1CNCCN1c1nc2cc(Cl)cc(-c3nccn3C)c2o1", "note": "[Example 49, (S)-5-Chloro-7-(1-methyl-1H-imidazol-2-yl)-2-(2-methylpiperazin-1-yl)-benzoxazole]", "PDE4 inhibitory activity (1 μM (%))": 17},
      {"smiles": "C[C@H]1CNCCN1c1nc2cc(Cl)cc(-c3ncc[nH]3)c2o1", "note": "[Example 50, (S)-5-Chloro-7-(1H-imidazol-2-yl)-2-(2-methylpiperazin-1-yl)benzoxazole]", "PDE4 inhibitory activity (1 μM (%))": 62},
      {"smiles": "C[C@H]1CNCCN1c1nc2cc(Cl)cc(CC3CCCCC3)c2o1", "note": "[Example 51, (S)-5-Chloro-7-(cyclohexylmethyl)-2-(2-methylpiperazin-1-yl)-benzoxazole]", "PDE4 inhibitory activity (1 μM (%))": 12},
      {"smiles": "C[C@H]1CNCCN1c1nc2cc(Cl)cc(OC3CCCCC3)c2o1", "note": "[Example 52, (S)-5-Chloro-7-(cyclohexyloxy)-2-(2-methylpiperazin-1-yl)benzoxazole]", "PDE4 inhibitory activity (1 μM (%))": 57},
      {"smiles": "C[C@H]1CNCCN1c1nc2cc(Cl)cc(OCC3CC3)c2o1", "note": "[Example 53, (S)-5-Chloro-7-(cyclopropylmethoxy)-2-(2-methylpiperazin-1-yl)benzoxazole]", "PDE4 inhibitory activity (1 μM (%))": 50},
      {"smiles": "C[C@H]1CNCCN1c1nc2cc(Cl)cc(-c3ccsn3)c2o1", "note": "[Example 54, (S)-5-Chloro-7-(isothiazole-3-yl)-2-(2-methylpiperazin-1-yl)benzoxazole]", "PDE4 inhibitory activity (1 μM (%))": 92},
      {"smiles": "C[C@H]1CNCCN1c1nc2cc(Cl)cc(-c3ncc(CO)s3)c2o1", "note": "[Example 55, (S)-5-Chloro-7-(5-hydroxymethylthiazol-2-yl)-2-(2-methylpiperazin-1-yl)benzoxazole]", "PDE4 inhibitory activity (1 μM (%))": 80},
      {"smiles": "C[C@H]1CNCCN1c1nc2cc(Cl)cc(-c3ncccn3)c2o1", "note": "[Example 56, (S)-5-Chloro-2-(2-methylpiperazin-1-yl)-7-(pyrimidin-2-yl)benzoxazole]", "PDE4 inhibitory activity (1 μM (%))": 87},
      {"smiles": "C[C@H]1CNCCN1c1nc2cc(Cl)cc(-c3ccc(Cl)s3)c2o1", "note": "[Example 57, (S)-5-Chloro-7-(5-chlorothiophen-2-yl)-2-(2-methylpiperazin-1-yl)benzoxazole]", "PDE4 inhibitory activity (1 μM (%))": 54},
      {"smiles": "C[C@H]1CNCCN1c1nc2cc(Cl)cc(-c3ccc(Cl)cn3)c2o1", "note": "[Example 58, (S)-5-Chloro-7-(5-chloropyridin-2-yl)-2-(2-methylpiperazin-1-yl)benzoxazole]", "PDE4 inhibitory activity (1 μM (%))": 77},
      {"smiles": "C[C@H]1CNCCN1c1nc2cc(Cl)cc(-c3cc(Cl)ccn3)c2o1", "note": "[Example 59, (S)-5-Chloro-7-(4-chloropyridin-2-yl)-2-(2-methylpiperazin-1-yl)benzoxazole]", "PDE4 inhibitory activity (1 μM (%))": 71},
      {"smiles": "C[C@H]1CNCCN1c1nc2cc(Cl)cc(-c3cccc(F)n3)c2o1", "note": "[Example 60, (S)-5-Chloro-7-(6-fluoropyridin-2-yl)-2-(2-methylpiperazin-1-yl)benzoxazole]", "PDE4 inhibitory activity (1 μM (%))": 63},
      {"smiles": "C[C@H]1CNCCN1c1nc2cc(Cl)cc(-c3ncccc3F)c2o1", "note": "[Example 61, (S)-5-Chloro-7-(3-fluoropyridin-2-yl)-2-(2-methylpiperazin-1-yl)benzoxazole]", "PDE4 inhibitory activity (1 μM (%))": 81},
      {"smiles": "C[C@H]1CNCCN1c1nc2cc(Cl)cc(-c3ncc(C#N)s3)c2o1", "note": "[Example 62, (S)-5-Chloro-7-(5-cyanothiazol-2-yl)-2-(2-methylpiperazin-1-yl)benzoxazole]", "PDE4 inhibitory activity (1 μM (%))": 65},
      {"smiles": "Cc1cnc(-c2cc(Cl)cc3nc(N4CCNC[C@@H]4C)oc23)s1", "note": "[Example 63, (S)-5-Chloro-2-(2-methylpiperazin-1-yl)-7-(5-methylthiazol-2-yl)benzoxazole]", "PDE4 inhibitory activity (1 μM (%))": 87},
      {"smiles": "C[C@H]1CNCCN1c1nc2cc(Cl)cc(-c3ccsc3Cl)c2o1", "note": "[Example 64, (S)-5-Chloro-7-(2-chlorothiophen-3-yl)-2-(2-methylpiperazin-1-yl)benzoxazole]", "PDE4 inhibitory activity (1 μM (%))": 73},
      {"smiles": "C[C@H]1CNCCN1c1nc2cc(Cl)cc(-c3ncc(C(N)=O)s3)c2o1", "note": "[Example 65, (S)-5-Chloro-7-(5-carbamoylthiazol-2-yl)-2-(2-methylpiperazin-1-yl)benzoxazole]", "PDE4 inhibitory activity (1 μM (%))": 83},
      {"smiles": "C[C@H]1CNCCN1c1nc2cc(Cl)cc(-c3ncccc3C#N)c2o1", "note": "[Example 66, (S)-5-Chloro-7-(3-cyanopyridin-2-yl)-2-(2-methylpiperazin-1-yl)benzoxazole]", "PDE4 inhibitory activity (1 μM (%))": 57},
      {"smiles": "C[C@H]1CNCCN1c1nc2cc(Cl)cc(-c3ccc(F)s3)c2o1", "note": "[Example 67, (S)-5-Chloro-7-(5-fluorothiophen-2-yl)-2-(2-methylpiperazin-1-yl)benzoxazole]", "PDE4 inhibitory activity (1 μM (%))": 70},
      {"smiles": "Cc1cccnc1-c1cc(Cl)cc2nc(N3CCNC[C@@H]3C)oc12", "note": "[Example 68, (S)-5-Chloro-2-(2-methylpiperazin-1-yl)-7-(3-methylpyridin-2-yl)benzoxazole]", "PDE4 inhibitory activity (1 μM (%))": 38},
      {"smiles": "Cc1nc(-c2cc(Cl)cc3nc(N4CCNC[C@@H]4C)oc23)cs1", "note": "[Example 69, (S)-5-Chloro-2-(2-methylpiperazin-1-yl)-7-(2-methylthiazol-4-yl)benzoxazole]", "PDE4 inhibitory activity (1 μM (%))": 65},
      {"smiles": "C[C@H]1CNCCN1c1nc2cc(Cl)cc(Oc3ccccc3)c2o1", "note": "[Example 70, (S)-5-Chloro-2-(2-methylpiperazin-1-yl)-7-phenoxybenzoxazole]", "PDE4 inhibitory activity (1 μM (%))": 38},
      {"smiles": "C[C@H]1CNCCN1c1nc2cc(Cl)cc(N3CCCC3=O)c2o1", "note": "[Example 71, (S)-5-Chloro-2-(2-methylpiperazin-1-yl)-7-(2-oxo-pyrrolidin-1-yl)benzoxazole]", "PDE4 inhibitory activity (1 μM (%))": 30},
      {"smiles": "C[C@H]1CNCCN1c1nc2cc(Cl)cc(N3CCOC3=O)c2o1", "note": "[Example 72, (S)-5-Chloro-2-(2-methylpiperazin-1-yl)-7-(2-oxo-oxazolidin-3-yl)benzoxazole]", "PDE4 inhibitory activity (1 μM (%))": 28},
      {"smiles": "C[C@H]1CNCCN1c1nc2cc(Cl)cc(-c3ccc(F)cn3)c2o1", "note": "[Example 73, (S)-5-Chloro-7-(5-fluoropyridin-2-yl)-2-(2-methylpiperazin-1-yl)benzoxazole]", "PDE4 inhibitory activity (1 μM (%))": 93},
      {"smiles": "C[C@H]1CNCCN1c1nc2cc(Cl)cc(-c3ncc(Cl)s3)c2o1", "note": "[Example 74, (S)-5-Chloro-7-(5-chlorothiazol-2-yl)-2-(2-methylpiperazin-1-yl)benzoxazole]", "PDE4 inhibitory activity (1 μM (%))": 83},
      {"smiles": "C[C@H]1CNCCN1c1nc2cc(Cl)cc(Cc3ccccc3)c2o1", "note": "[Example 75, (S)-7-Benzyl-5-chloro-2-(2-methylpiperazin-1-yl)benzoxazole]", "PDE4 inhibitory activity (1 μM (%))": 45},
      {"smiles": "C[C@H]1CNCCN1c1nc2cc(Cl)cc(-c3ncsc3CO)c2o1", "note": "[Example 76, (S)-5-Chloro-7-(5-(hydroxymethyl)thiazol-4-yl)-2-(2-methylpiperazin-1-yl)benzoxazole]", "PDE4 inhibitory activity (1 μM (%))": 73},
      {"smiles": "C[C@H]1CNCCN1c1nc2cc(Cl)cc(Oc3nccs3)c2o1", "note": "[Example 77, (S)-5-Chloro-2-(2-methylpiperazin-1-yl)-7-(thiazol-2-yloxy)benzoxazole]", "PDE4 inhibitory activity (1 μM (%))": 30},
      {"smiles": "C[C@H]1CNCCN1c1nc2cc(Cl)cc(-c3ncc([N+](=O)[O-])s3)c2o1", "note": "[Example 78, (S)-5-Chloro-2-(2-methylpiperazin-1-yl)-7-(5-nitrothiazol-2-yl)benzoxazole]", "PDE4 inhibitory activity (1 μM (%))": 58},
      {"smiles": "COc1cccnc1-c1cc(Cl)cc2nc(N3CCNC[C@@H]3C)oc12", "note": "[Example 79, (S)-5-Chloro-7-(3-methoxypyridin-2-yl)-2-(2-methylpiperazin-1-yl)benzoxazole]", "PDE4 inhibitory activity (1 μM (%))": 53},
      {"smiles": "C[C@H]1CNCCN1c1nc2cc(Cl)cc(-c3ccc(F)cc3)c2o1", "note": "[Example 81, (S)-5-Chloro-7-(4-fluorophenyl)-2-(2-methylpiperazin-1-yl)benzoxazole]", "PDE4 inhibitory activity (1 μM (%))": 68}
    ]}
  ]
}
